Measured values from patent EP4273147A1, “SUBSTITUTED SPIROLACTAMS, SALTS THEREOF AND THEIR USE AS HERBICIDALLY ACTIVE SUBSTANCES” (Bayer Aktiengesellschaft, priority 2022, dated 2023).

How the values were obtained:
LOLRI [1] = assay: Herbicidal pre-emergence action, section C (Table C7); type: in vivo, Lolium rigidum; conditions: application rate 320 g/ha; visual grading after ca. 3 weeks
ORYZA [2] = assay: Pre-emergence effects on crop plants (Table D3); conditions: crop plant; application rate 80 g/ha; visual grading after ca. 3 weeks
MATIN [3] = assay: Herbicidal pre-emergence action (Table A4); type: in vivo, Matricaria inodora; conditions: visual grading after ca. 3 weeks
In short: (§1)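 Double sowing per pot (1 monocot + 1 dicot weed species), sandy loam substrate, seeds covered with soil.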

POAAN [4] = assay: Herbicidal post-emergence action (Table B7); type: in vivo, Poa annua; conditions: application rate 1280 g/ha
In short: (§2)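 Greenhouse pot assay, sandy loam soil, one weed species per pot. Application at one-leaf stage. Readout ~3 wk post-treatment: visual % activity, 100 = dead, 0 = as untreated.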

ECHCG [5] = assay: Herbicidal post-emergence action (Table B3); type: in vivo, Echinochloa crus-galli; conditions: rated visually after about 3 weeks
In short: as §2

STEME = assay: Herbicidal pre-emergence action (Table A6); type: in vivo, Stellaria media; conditions: application rate 320 g/ha; visual grading after ca. 3 weeks
In short: as §1

ORYZA [6] = assay: Post-emergence effects on crop plants (Table F3); type: in vivo, Oryza sativa; conditions: application rate 320 g/ha, crop plant ORYZA
From the text: (§3) 2 to 3 weeks after sowing, the test plants were sprayed in the single-leaf stage.

BRSNW [7] = assay: Pre-emergence effects on crop plants (Table D5); type: in vivo, Brassica napus; conditions: crop plant; application rate 80 g/ha; visual grading after ca. 3 weeks
LOLRI [8] = assay: Herbicidal pre-emergence action (Table A3); type: in vivo, Lolium rigidum; conditions: visual grading after ca. 3 weeks
In short: as §1

ZEAMX [9] = assay: Pre-emergence effects on crop plants (Table D1); type: in vivo, Zea mays; conditions: crop plant; application rate 320 g/ha; visual grading after ca. 3 weeks
From the text: (§5) Seeds of mono- and dicotyledonous weed plants and crop plants were sown, in plastic or organic planting pots, in sandy loam and covered with soil. The compounds according to the invention, formulated in the form of wettable powders (WP) or as emulsifiable concentrates (EC), were applied to the surface of the covering soil as aqueous suspension or emulsion, with the addition of 0.5% of an additive, at an application rate of 600 1 of water/ha (converted).
(§6) Following treatment, the pots were placed in a greenhouse and kept under optimum growth conditions for the test plants.

SETVI [10] = assay: Herbicidal pre-emergence action (Table A5); type: in vivo, Setaria viridis; conditions: visual grading after ca. 3 weeks
In short: as §1

VERPE [11] = assay: Herbicidal pre-emergence action, section C (Table C11); type: in vivo, Veronica persica; conditions: application rate 320 g/ha; visual grading after ca. 3 weeks
VIOTR [12] = assay: Herbicidal pre-emergence action, section C (Table C12); type: in vivo, Viola tricolor; conditions: application rate 80 g/ha; visual grading after ca. 3 weeks
VIOTR [13] = assay: Herbicidal post-emergence action, section E (Table E10); type: in vivo, Viola tricolor; conditions: application rate 320 g/ha; assessed visually after ca. 3 weeks
From the text: as §3

GLXMA [14] = assay: Post-emergence effects on crop plants (Table F4); type: in vivo, Glycine max; conditions: application rate 320 g/ha, crop plant GLXMA
From the text: as §3

DIGSA [15] = assay: Herbicidal pre-emergence action (Table A12); type: in vivo, Digitaria sanguinalis; conditions: application rate 320 g/ha; visual grading after ca. 3 weeks
In short: as §1

MATIN [16] = assay: Herbicidal post-emergence action (Table B6); type: in vivo, Matricaria inodora; conditions: application rate 1280 g/ha; rated visually after about 3 weeks
Method: (§4) Seeds of mono- and dicotyledonous weed plants were placed in plastic pots in sandy loam soil (doubly sown with in each case one species of mono- or dicotyledonous weed plants per pot), covered with soil and cultivated in a greenhouse under controlled growth conditions. 2 to 3 weeks after sowing, the test plants were treated at the one-leaf stage. […] After the test plants had been kept in the greenhouse under optimum growth conditions for about 3 weeks, the activity of the preparations was rated visually in comparison to untreated controls. For example, 100% activity = the plants have died, 0% activity = like control plants.

ECHCG [17] = assay: Herbicidal pre-emergence action, section C (Table C6); type: in vivo, Echinochloa crus-galli; conditions: application rate 80 g/ha; visual grading after ca. 3 weeks
From the text: (§7) Seeds of mono- and dicotyledonous weed plants and crop plants were sown, in plastic or organic planting pots, in sandy loam and covered with soil. The compounds according to the invention, formulated in the form of wettable powders (WP) or as emulsifiable concentrates (EC), were applied to the surface of the covering soil as aqueous suspension or emulsion, with the addition of 0.5% of an additive, at an application rate of 600 1 of water/ha (converted). Following treatment, the pots were placed in a greenhouse and kept under optimum growth conditions for the test plants.

ALOMY [18] = assay: Herbicidal pre-emergence action (Table A9); type: in vivo, Alopecurus myosuroides; conditions: application rate 1280 g/ha; visual grading after ca. 3 weeks
In short: as §1

GLXMA [19] = assay: Pre-emergence effects on crop plants (Table D4); type: in vivo, Glycine max; conditions: crop plant; application rate 320 g/ha; visual grading after ca. 3 weeks
From the text: as §5, §6

VERPE [20] = assay: Herbicidal post-emergence action, section E (Table E9); type: in vivo, Veronica persica; conditions: application rate 320 g/ha; assessed visually after ca. 3 weeks
From the text: as §3

DIGSA [21] = assay: Herbicidal pre-emergence action, section C (Table C5); type: in vivo, Digitaria sanguinalis; conditions: application rate 80 g/ha; visual grading after ca. 3 weeks
ALOMY [22] = assay: Herbicidal pre-emergence action, section C (Table C2); type: in vivo, Alopecurus myosuroides; conditions: application rate 320 g/ha; visual grading after ca. 3 weeks
POAAN [23] = assay: Herbicidal pre-emergence action (Table A7); type: in vivo, Poa annua
In short: as §1

SETVI [24] = assay: Herbicidal pre-emergence action, section C (Table C10); type: in vivo, Setaria viridis; conditions: visual grading after ca. 3 weeks
LOLRI [25] = assay: Herbicidal post-emergence action (Table B5); type: in vivo, Lolium rigidum; conditions: application rate 1280 g/ha; rated visually after about 3 weeks
Method: as §4

TRZAS [26] = assay: Post-emergence effects on crop plants (Table F2); type: in vivo, Triticum aestivum; conditions: application rate 320 g/ha, crop plant TRZAS
From the text: as §3

ZEAMX [27] = assay: Post-emergence effects on crop plants (Table F1); type: in vivo, Zea mays; conditions: application rate 320 g/ha, crop plant ZEAMX
From the text: as §3

SETVI [28] = assay: Herbicidal post-emergence action (Table B8); type: in vivo, Setaria viridis
In short: as §2

ECHCG [29] = assay: Herbicidal pre-emergence action (Table A2); type: in vivo, Echinochloa crus-galli; conditions: visual grading after ca. 3 weeks
In short: as §1

ALOMY [30] = assay: Herbicidal post-emergence action (Table B2); type: in vivo, Alopecurus myosuroides; conditions: application rate 1280 g/ha; rated visually after about 3 weeks
Method: as §4

VERPE [31] = assay: Herbicidal post-emergence action (Table B10); type: in vivo, Veronica persica; conditions: application rate 320 g/ha
In short: as §2

ALOMY [32] = assay: Herbicidal post-emergence action, section E (Table E2); type: in vivo, Alopecurus myosuroides; conditions: application rate 320 g/ha; assessed visually after ca. 3 weeks
From the text: as §3

VERPE [33] = assay: Herbicidal pre-emergence action (Table A11); type: in vivo, Veronica persica; conditions: application rate 1280 g/ha; visual grading after ca. 3 weeks
In short: as §1

ABUTH [34] = assay: Herbicidal pre-emergence action, section C (Table C1); type: in vivo, Abutilon theophrasti; conditions: application rate 320 g/ha; visual grading after ca. 3 weeks
From the text: as §7

ABUTH [35] = assay: Herbicidal pre-emergence action (Table A1); type: in vivo, Abutilon theophrasti; conditions: application rate 1280 g/ha; visual grading after ca. 3 weeks vs untreated controls (100% = plants have died off, 0% = as control plants)
In short: as §1

POLCO = assay: Herbicidal pre-emergence action, section C (Table C9); type: in vivo, Polygonum convolvulus; conditions: application rate 320 g/ha; visual grading after ca. 3 weeks
TRZAS [36] = assay: Pre-emergence effects on crop plants (Table D2); type: in vivo, Triticum aestivum; conditions: crop plant; application rate 80 g/ha; visual grading after ca. 3 weeks
AMARE = assay: Herbicidal pre-emergence action (Table A8); type: in vivo, Amaranthus retroflexus; conditions: application rate 1280 g/ha; visual grading after ca. 3 weeks vs untreated controls (100% = plants have died off, 0% = as control plants)
From the text: Seeds of mono- and dicotyledonous weed plants were sown in plastic pots (double sowings with one species of mono- and one species of dicotyledonous weed plants per pot), in sandy loam, and covered with soil.

BRSNW [37] = assay: Post-emergence effects on crop plants (Table F5); type: in vivo, Brassica napus; conditions: application rate 80 g/ha, crop plant BRSNW
From the text: as §3

KCHSC = assay: Herbicidal pre-emergence action (Table A10); type: in vivo, Kochia scoparia; conditions: application rate 320 g/ha; visual grading after ca. 3 weeks
In short: as §1

ECHCG [38] = assay: Herbicidal post-emergence action, section E (Table E5); type: in vivo, Echinochloa crus-galli; conditions: application rate 320 g/ha; assessed visually after ca. 3 weeks
From the text: as §3

MATIN [39] = assay: Herbicidal pre-emergence action, section C (Table C8); type: in vivo, Matricaria inodora; conditions: application rate 320 g/ha; visual grading after ca. 3 weeks
[40] = application rate 320 g/ha, visual grading after ca. 3 weeks

pre-emergence activity against ORYZA (ORYZA [2]) [%]	pre-emergence activity against BRSNW (BRSNW [7]) [%]	pre-emergence activity against ZEAMX (ZEAMX [9]) [%]	pre-emergence activity against GLXMA (GLXMA [19]) [%]	Compound	pre-emergence activity against LOLRI (LOLRI [1]) [%]	pre-emergence activity against MATIN (MATIN [3]; application rate 1280 g/ha) [%]	post-emergence activity against ECHCG (ECHCG [5]; application rate 1280 g/ha) [%]	pre-emergence activity against STEME (STEME) [%]	post-emergence activity against ORYZA (ORYZA [6]) [%]	pre-emergence activity against VERPE (VERPE [11]) [%]	pre-emergence activity against VIOTR (VIOTR [12]) [%]	post-emergence activity against VIOTR (VIOTR [13]) [%]	pre-emergence activity against DIGSA (DIGSA [15]) [%]	post-emergence activity against MATIN (MATIN [16]) [%]	pre-emergence activity against ECHCG (ECHCG [17]) [%]	pre-emergence activity against ALOMY (ALOMY [18]) [%]	pre-emergence activity against DIGSA (DIGSA [21]) [%]	pre-emergence activity against ALOMY (ALOMY [22]) [%]	pre-emergence activity against POAAN (POAAN [23]; [40]) [%]	post-emergence activity against LOLRI (LOLRI [25]) [%]	other results
0	0	0	0	O=C1N(Cc2ccccc2Cl)CCC12CCCN(Cc1c(F)cccc1F)C2=O (racemic) [I-045]	90	90	90	90	0	80	90	80	90	90	90	90	80	100	100	90	post-emergence activity against POAAN (POAAN [4]): 90%; pre-emergence activity against LOLRI (LOLRI [8]; application rate 1280 g/ha): 100%; pre-emergence activity against SETVI (SETVI [10]; application rate 1280 g/ha): 100%; post-emergence activity against GLXMA (GLXMA [14]): 0%; post-emergence activity against VERPE (VERPE [20]): 80%; pre-emergence activity against SETVI (SETVI [24]; application rate 320 g/ha): 100%; post-emergence activity against TRZAS (TRZAS [26]): 0%; post-emergence activity against ZEAMX (ZEAMX [27]): 0%
				O=C1N(Cc2ccccc2Cl)CCCC12CCCN(Cc1cccc(F)c1F)C2=O (racemic) [I-018]		90										90					post-emergence activity against ECHCG (ECHCG [5]; application rate 320 g/ha): 90%; post-emergence activity against SETVI (SETVI [28]; application rate 320 g/ha): 90%; pre-emergence activity against LOLRI (LOLRI [8]; application rate 320 g/ha): 100%; pre-emergence activity against ECHCG (ECHCG [29]; application rate 320 g/ha): 100%; pre-emergence activity against SETVI (SETVI [10]; application rate 320 g/ha): 90%; post-emergence activity against ALOMY (ALOMY [30]): 90%; post-emergence activity against VERPE (VERPE [31]): 90%; pre-emergence activity against POAAN (POAAN [23]; pre-emergence, 1290 g/ha, 504 h): 100%
0	20	0	0	O=C1N(Cc2ccccc2F)CCC12CCCN(Cc1c(F)cccc1F)C2=O (racemic) [I-024]	90		90	90	0	90	90	80	100	90	100	90	80	90	100	90	post-emergence activity against ALOMY (ALOMY [32]): 80%; pre-emergence activity against VERPE (VERPE [33]): 90%; pre-emergence activity against ABUTH (ABUTH [34]): 90%; pre-emergence activity against ABUTH (ABUTH [35]): 90%; pre-emergence activity against MATIN (MATIN [3]; application rate 320 g/ha): 90%; pre-emergence activity against POLCO (POLCO): 90%; post-emergence activity against SETVI (SETVI [28]; application rate 1280 g/ha): 90%; pre-emergence activity against LOLRI (LOLRI [8]; application rate 320 g/ha): 100%; pre-emergence activity against TRZAS (TRZAS [36]): 0%; pre-emergence activity against AMARE (AMARE): 90%; pre-emergence activity against ECHCG (ECHCG [29]; application rate 1280 g/ha): 100%; pre-emergence activity against SETVI (SETVI [10]; application rate 320 g/ha): 100%; post-emergence activity against BRSNW (BRSNW [37]): 0%; pre-emergence activity against KCHSC (KCHSC): 90%; post-emergence activity against ECHCG (ECHCG [38]): 90%; pre-emergence activity against MATIN (MATIN [39]): 90%; pre-emergence activity against SETVI (SETVI [24]; application rate 80 g/ha): 100%; post-emergence activity against TRZAS (TRZAS [26]): 0%; post-emergence activity against ZEAMX (ZEAMX [27]): 0%
